Reference: patent US9695175B2, “Highly selective c-Met inhibitors as anticancer agents” (Crown Bioscience Inc. (Taiwan), priority 2012, dated 2017)

Assays:
[1] = biological target: c-Met protein in S114 cells (Homo sapiens (Human), UniProt P08581); test: S114 cell-based ELISA, phosphorylation of c-Met protein; conditions: 30 min compound incubation, phospho-c-Met ELISA
Experimental: Cell-Based ELISA [Method] Use ELISA to measure the phosphorylation of c-Met protein in […] cells [Instrument] ENVISION plate reader of PerKinElmer […] [Procedure] […] cells are cultured in DMEM medium (containing 10% FBS). When cells reach 80% confluency, they are collected by trypsinization and centrifugation at 800 rpm for 5 min. The cells are re-suspended in DMEM and adjusted to a density of 500,000 cells/mL. A 96-well plate is pretreated with a solution of Firbronectin in PBS (5 μg/mL) at 100 μL per well for 2 hr. The cell suspension is split into the 96-well culture plate at 100 uL per well and incubated (37° C., 5% CO2) overnight. The capture antibody is diluted with 1/2 Tris-ammonium bicarbonate buffer (1:1000) and transferred into a 96-well absorption plate (70 μL per well) at 4° C. overnight. The solution is discarded and the plate is washed with blocking buffer, followed by adding blocking buffer (150 μL per well), and kept at room temperature for 1 hr. The medium in the 96-well culture plate is discarded and the plate is washed with DMEM (without FBS). Then 80 μL of DMEM (without FBS) and 20 μL of test compound solution at various concentrations in DMEM (without FBS) are added. The culture plate is kept in a culture incubator for 30 min (37° C., 5% CO2). The cell culture medium is discarded and the culture plate is washed with PBS, followed by adding lysis buffer (50 μL per well) and incubated at 4° C. for 20 min. The solution in the absorption plate is discarded and the plate is washed with binding buffer. To each well of the absorption plate is added binding buffer (50 μL) and lysate (40 μL) from the above culture plate; then the plate is incubated at room temperature for 2 hours. The culture medium is discarded and the plate is washed twice with binding buffer, followed by adding a solution of 1st antibody (diluted with binding buffer 1:1000, 100 μL per well) and incubated at 37° C. for 1 hr. The solution is discarded and the plate is washed twice with binding buffer. Then a solution of 2nd antibody is added (100 μL per well) and incubated at 37° C. for another hour. The medium is discarded and the plate is washed twice with binding buffer and once with PBS. To each well, 100 μL of A.B.T.S solution is added and incubated at 37° C. for 30 min. Then OD405 is analyzed on an ENVISION plate reader. This assay has a Minimum Significant Ratio (MSA) of 2-3. [Samples] All exemplified compounds and Crizotinib as the positive control [Data Analysis] Background (no cell lysate): 0.084 • Max (no test compound): 0.517 [formula] [Software] Use CBIS data analysis software to calculate IC50 values

[2] = biological target: c-Met kinase (1038-1346AA) (Homo sapiens (Human), UniProt P08581); test: c-Met in vitro kinase assay (Lance Ultra ULight-TK); type: biochemical; conditions: c-Met kinase 12.5 nM, ATP 2.5 uM, 30° C.; read-out: c-Met Enzyme IC50
Chain of c-Met kinase (1038-1346AA) (P08581 1038-1346): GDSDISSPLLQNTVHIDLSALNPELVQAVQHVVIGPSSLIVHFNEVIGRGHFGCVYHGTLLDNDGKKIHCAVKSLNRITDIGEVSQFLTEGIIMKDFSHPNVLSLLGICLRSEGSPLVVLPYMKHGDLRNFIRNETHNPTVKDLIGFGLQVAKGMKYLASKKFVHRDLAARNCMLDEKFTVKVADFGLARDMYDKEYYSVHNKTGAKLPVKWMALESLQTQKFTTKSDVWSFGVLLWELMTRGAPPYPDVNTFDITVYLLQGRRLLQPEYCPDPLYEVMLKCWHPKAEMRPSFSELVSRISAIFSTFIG
Experimental: c-Met In Vitro Kinase Assay [Method] Use Lance@Ultra Ulight™-TK test kits from PerKinElmer to evaluate the inhibition of c-Met kinase by the compounds [Instrument] ENVISION plate reader of PerKinElmer […] Then ATP (final concentration 2.5 uM) and kinase substrate (final concentration 50 nM) are added. […] After 1 hr, the plate is read at 615 nm and 665 nm. The ratio of […] at 665 nm and 615 nm is calculated and used for the data analysis as follows. This assay has a Minimum Significant Ratio (MSA) of 2-3. [Samples] All exampled compounds and Crizotinib as the positive control [Data Analysis] Background—the ratio of 665 nm/615 nm (no enzyme):0.003285 • Max—the ratio of 665 nm/615 nm (no test compound):0.075356 [formula] [Software] Use CBIS data analysis software to calculate IC50 values

Chain of c-Met protein in S114 cells (P08581 25-1390): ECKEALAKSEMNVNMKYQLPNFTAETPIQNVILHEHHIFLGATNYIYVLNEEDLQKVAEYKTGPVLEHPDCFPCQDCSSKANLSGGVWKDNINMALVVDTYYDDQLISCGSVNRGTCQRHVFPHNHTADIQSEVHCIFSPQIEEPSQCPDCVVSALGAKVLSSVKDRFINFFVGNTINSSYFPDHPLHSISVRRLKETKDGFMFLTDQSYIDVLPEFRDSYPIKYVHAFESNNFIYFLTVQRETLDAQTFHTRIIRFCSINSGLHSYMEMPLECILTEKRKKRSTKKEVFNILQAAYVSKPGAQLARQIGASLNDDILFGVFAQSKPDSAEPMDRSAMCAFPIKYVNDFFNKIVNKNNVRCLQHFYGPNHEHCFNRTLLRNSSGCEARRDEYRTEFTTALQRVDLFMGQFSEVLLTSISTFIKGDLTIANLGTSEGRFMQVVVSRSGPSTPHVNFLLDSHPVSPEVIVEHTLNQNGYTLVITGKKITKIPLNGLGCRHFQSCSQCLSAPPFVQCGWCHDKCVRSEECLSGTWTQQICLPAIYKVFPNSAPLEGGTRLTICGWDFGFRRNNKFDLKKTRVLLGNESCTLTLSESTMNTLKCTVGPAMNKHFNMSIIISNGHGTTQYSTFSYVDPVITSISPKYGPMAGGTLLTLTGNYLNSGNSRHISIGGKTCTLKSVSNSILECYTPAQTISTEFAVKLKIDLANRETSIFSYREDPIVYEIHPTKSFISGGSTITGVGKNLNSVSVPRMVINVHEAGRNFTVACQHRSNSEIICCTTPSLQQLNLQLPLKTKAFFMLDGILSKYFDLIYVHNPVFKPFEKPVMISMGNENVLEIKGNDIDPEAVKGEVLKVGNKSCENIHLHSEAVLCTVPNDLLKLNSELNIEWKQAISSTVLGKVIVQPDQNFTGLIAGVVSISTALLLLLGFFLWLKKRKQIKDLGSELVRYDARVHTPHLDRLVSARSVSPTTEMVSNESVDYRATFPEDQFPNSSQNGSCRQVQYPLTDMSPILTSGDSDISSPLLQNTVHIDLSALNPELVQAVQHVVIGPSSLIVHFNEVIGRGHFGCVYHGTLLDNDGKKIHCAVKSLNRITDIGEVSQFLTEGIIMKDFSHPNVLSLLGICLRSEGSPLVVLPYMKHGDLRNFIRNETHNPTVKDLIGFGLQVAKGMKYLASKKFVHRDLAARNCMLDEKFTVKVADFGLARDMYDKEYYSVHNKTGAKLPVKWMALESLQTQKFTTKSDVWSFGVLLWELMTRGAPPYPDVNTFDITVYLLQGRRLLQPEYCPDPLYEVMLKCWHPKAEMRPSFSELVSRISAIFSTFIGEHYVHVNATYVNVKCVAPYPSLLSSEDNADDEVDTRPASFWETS

| IC50 [1] [nM] | IC50 [2] [nM] | SMILES |
| --- | --- | --- |
| 134 | 203 | COCCn1cc(-c2ccc3nnc(C(F)(F)c4cc5cn(C)nc5cc4F)n3n2)cn1 [Example 40] |
| 9.5 | 36.5 | CNC(=O)c1c(F)cc(-c2ccc3nnc(C(F)(F)c4ccc5nn(C)cc5c4F)n3n2)cc1F [Example 6] |
| 103 | 148 | CN(C)C(=O)c1ccc(-c2ccc3nnc(C(F)(F)c4ccc5nn(C)cc5c4F)n3n2)cc1F [Example 2] |
